{
  "source": "patent US12062444B2",
  "about": "“Methods and compositions related to triple-negative breast cancer” (THE UNIVERSITY OF CHICAGO, priority 2017, dated 2024)",
  "key": {"[1]": {"tested_on": "tumor cell survival", "conditions": "in vitro and in vivo; cited from earlier work"}, "[2]": {"tested_on": "GR-regulated gene expression in MDA-MB-231 cells", "assay": "Gene expression microarray and analysis", "format": "cell-based, human", "method": "MDA-MB-231 cells were grown to 80% confluence in 15-cm dishes in DMEM with 10% FBS. […] Following compound exposure, cells were washed in PBS, and lysed in RNA lysis buffer (Qiagen) overnight at -80° C. RNA extraction, with accompanying DNase treatment, was performed using the RNeasy kit (Qiagen) following the manufacturer's protocol. […] The University of Chicago Genomics Core facility carried out the reverse transcription on the samples, followed by microarray using the Affymetrix Human U133 Plus 2.0 platform. […] A principal components analysis (PCA) was performed using the prcomp function in R (Q-mode PCA using singular value decomposition). […] Dex-regulated genes were overlapped with a list of n=5,170 differentially-expressed tumor-derived genes (in the same direction) from GR-high versus GR-low BCs (52). Ingenuity Pathway Analysis (Qiagen) of the n=462 patient-relevant and antagonist-inhibited genes was performed to obtain Activation Z-scores of the most significant Diseases and Biofunctions (cell functions)."}, "[3]": {"tested_on": "apoptotic cells", "conditions": "RU486 in conjunction with dexamethasone, compared to paclitaxel alone; cited from earlier work"}, "[4]": {"conditions": "mifepristone 300 mg/day before weekly nab-paclitaxel, BC patients; cited from earlier work"}, "[5]": {"target": "T1, GR LBD (Homo sapiens, UniProt P04150)", "T1 construct": "The wild-type GR-LBD (amino acid residues 522-777) was cloned into a pFASTBAC plasmid; 6X-His (TEV-cleavable) (cleaved yes); made in house; host or cells: SF9 insect cells (baculovirus, pFASTBAC)", "T1 sequence (P04150 522-777)": "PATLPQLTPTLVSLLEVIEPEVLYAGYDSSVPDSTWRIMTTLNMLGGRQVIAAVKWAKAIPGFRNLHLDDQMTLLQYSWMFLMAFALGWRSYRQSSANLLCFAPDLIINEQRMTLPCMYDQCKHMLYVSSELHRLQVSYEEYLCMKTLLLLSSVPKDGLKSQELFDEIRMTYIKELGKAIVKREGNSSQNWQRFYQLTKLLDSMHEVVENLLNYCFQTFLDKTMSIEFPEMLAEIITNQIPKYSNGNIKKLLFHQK", "assay": "Ligand titration assay via fluorescence polarimetry (displacement of F-Dex)", "format": "binding", "method": "SF9 insect cells were transfected with recombinant bacmid and virus (collected after 6 days) was amplified prior to protein expression. […] GR-LBD was purified first using Ni-affinity chromatography followed by overnight dialysis with TEV protease to remove the His tag. Extensive dialysis into 20 mM TRIS pH 8.0, 500 mM NaCl, 5% glycerol, 0.1% CHAPS, 0.25 mM TCEP was performed to obtain non-ligand-bound GR LBD. […] The purified proteins were concentrated to 5 mg/ml, flash frozen in 50 ul aliquots in N2(l), and stored at −80C.\nGR LBD was diluted in assay buffer (20 mM TRIS pH 7.5, 50 mM NaCl, 0.25 mM TCEP) to a concentration of 50 nM. […] Triplicate FP measurements were scaled to maximal FP and averaged for each ligand concentration."}, "[6]": {"tested_on": "GR chromatin association in MDA-MB-231 cells", "assay": "GR ChIP-sequencing and analysis", "format": "cell-based, human", "conditions": "co-treatment with Dex", "method": "MDA-MB-231 cells were grown to 80% confluence in 15-cm dishes in DMEM with 10% FBS, followed by 48h in DMEM supplemented with 2.5% charcoal-stripped FBS. […] Cells were cross-linked with 1% formaldehyde, quenched with glycine (final concentration of […]), and harvested. After cell lysis with ChIP lysis buffer (Magna ChIP A Chromatin Immunoprecipitation Kit, EMD Millipore), cells were sonicated to achieve the majority of DNA fragments between 200-400 bp. Input samples were preserved at -80° C. […] Following manufacturer's protocol, chromatin was eluted from GR ChIP and input samples. Library build and sequencing was performed at the University of Oregon Genomics Core facility using the NextSeq 500 sequencer. Quality control on sequences and adapter sequencing trimming was performed using Kapa Biosystems Illumina Library Quantification Kit. ChIP-seq analysis was carried out using the Galaxy platform (usegalaxy.org (111)). […] GR peaks for each treatment were normalized to its own input control sample. […] Selected GR peak locations in hg19 and GR peak maps were also individually analyzed using Integrative Genomics Viewer, IGV (Broad Institute (116))."}},
  "note": "“Also recorded” adds a separate entry of the source.",
  "data": [
    {"smiles": "CC#C[C@]1(O)CC[C@H]2[C@@H]3CCC4=CC(=O)CCC4=C3[C@@H](c3ccc(N(C)C)cc3)C[C@@]21C", "note": "[Mif, mifepristone]", "values": [
      {"measurement": "Paclitaxel cytotoxicity under GC activation", "setting": "[1]", "result": "increase paclitaxel cytotoxicity both in vitro and in vivo"},
      {"measurement": "Genes for which both GR modulators antagonized GR induction or repression by at least 25%", "setting": "[2]; 100 nM with 100 nM Dex", "result": "3,066"},
      {"measurement": "Antagonized GR-regulated genes shared with the other antagonist", "setting": "[2]; C297 versus Mif, 100 nM", "result": 68, "unit": "%"},
      {"measurement": "Pathway activation Z-score (Ingenuity Pathway Analysis) relative to Dex", "setting": "[2]; n=462 genes, cell survival, invasion, EMT pathways, FIG. 13", "result": "relative dampening of Z-score magnitude"},
      {"measurement": "Number of apoptotic cells induced by paclitaxel", "setting": "[3]", "result": "did not increase the number of apoptotic cells"},
      {"measurement": "Safety and tolerability of the combination with nab-paclitaxel", "setting": "[4]", "result": "safe and tolerable; also recorded: potential for increased cytopenias"},
      {"measurement": "Displacement of fluorescently-labeled Dex (F-Dex) from the GR LBD", "setting": "[5]", "result": "low nM affinities"},
      {"measurement": "Fit of FP dose response curve (half-maximal FP signal)", "setting": "[5]", "result": "able to fit data"},
      {"measurement": "Relative GR promoter enrichment (+/−3kb)", "setting": "[6]", "result": "decrease in relative GR promoter enrichment"}
    ]}
  ]
}
